Test results as given in ChEMBL document CHEMBL1909046, “DrugMatrix in vitro pharmacology data”.

Tests used:
[1] = target: Mitogen-activated protein kinase 14 (Homo sapiens, UniProt Q16539); parameters: species or system Escherichia coli;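 note: inhibition of p38alpha enzyme activity in a biochemical kinase assay, with myelin basic protein serving as substrate; in other assays of this panel Not Active means under 50% inhibition at 10 µM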
Cathepsin G = target: T1, Cathepsin G (Homo sapiens, UniProt P08311); format: tissue-based; conditions: neutrophil;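 note: inhibition of Cathepsin G enzyme activity, tested on an AMC-conjugated peptide substrate; in other assays of this panel Not Active means under 50% inhibition at 10 µM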
T1 sequence (P08311 whole entry): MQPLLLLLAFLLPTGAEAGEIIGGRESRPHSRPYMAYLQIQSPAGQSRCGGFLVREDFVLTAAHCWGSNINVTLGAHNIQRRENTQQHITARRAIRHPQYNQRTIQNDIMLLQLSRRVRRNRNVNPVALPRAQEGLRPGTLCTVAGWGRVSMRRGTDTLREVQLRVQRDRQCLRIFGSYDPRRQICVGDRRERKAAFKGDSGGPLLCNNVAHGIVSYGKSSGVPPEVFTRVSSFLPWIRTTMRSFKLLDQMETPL

[2] = DRUGMATRIX: Platelet-Derived Growth Factor (PDGF) radioligand binding (ligand: [125I] PDGF); format: cell-based; conditions: nih3t3; Not Active = under 50% inhibition at 10 µM
Insulin receptor = Insulin receptor (Rattus norvegicus, UniProt P15127); format: cell membranes, Wistar, Liver, Membrane; note: in other assays of this panel Not Active means under 50% inhibition at 10 µM
Insulin receptor, sequence (P15127 27-759 limits assumed): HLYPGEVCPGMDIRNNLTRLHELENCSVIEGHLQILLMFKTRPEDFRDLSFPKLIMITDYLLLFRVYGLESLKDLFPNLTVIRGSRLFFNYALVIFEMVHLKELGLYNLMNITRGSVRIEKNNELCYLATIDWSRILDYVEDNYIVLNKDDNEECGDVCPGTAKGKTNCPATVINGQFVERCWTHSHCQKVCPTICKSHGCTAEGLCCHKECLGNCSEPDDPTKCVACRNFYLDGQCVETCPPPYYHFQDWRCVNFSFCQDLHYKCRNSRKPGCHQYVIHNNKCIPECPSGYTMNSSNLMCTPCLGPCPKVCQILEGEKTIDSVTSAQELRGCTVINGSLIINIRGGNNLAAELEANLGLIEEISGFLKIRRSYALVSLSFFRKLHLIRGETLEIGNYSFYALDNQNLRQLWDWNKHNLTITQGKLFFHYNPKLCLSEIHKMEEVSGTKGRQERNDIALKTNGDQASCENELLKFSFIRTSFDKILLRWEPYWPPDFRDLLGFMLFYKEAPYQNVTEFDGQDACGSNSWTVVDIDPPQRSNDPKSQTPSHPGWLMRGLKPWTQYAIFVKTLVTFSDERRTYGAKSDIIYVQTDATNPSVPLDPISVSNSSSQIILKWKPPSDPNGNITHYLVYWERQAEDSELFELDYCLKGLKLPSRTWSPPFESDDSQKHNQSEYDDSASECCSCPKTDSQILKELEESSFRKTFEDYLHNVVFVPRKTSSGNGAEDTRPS
Insulin receptor, sequence (P15127 764-1383 limits assumed): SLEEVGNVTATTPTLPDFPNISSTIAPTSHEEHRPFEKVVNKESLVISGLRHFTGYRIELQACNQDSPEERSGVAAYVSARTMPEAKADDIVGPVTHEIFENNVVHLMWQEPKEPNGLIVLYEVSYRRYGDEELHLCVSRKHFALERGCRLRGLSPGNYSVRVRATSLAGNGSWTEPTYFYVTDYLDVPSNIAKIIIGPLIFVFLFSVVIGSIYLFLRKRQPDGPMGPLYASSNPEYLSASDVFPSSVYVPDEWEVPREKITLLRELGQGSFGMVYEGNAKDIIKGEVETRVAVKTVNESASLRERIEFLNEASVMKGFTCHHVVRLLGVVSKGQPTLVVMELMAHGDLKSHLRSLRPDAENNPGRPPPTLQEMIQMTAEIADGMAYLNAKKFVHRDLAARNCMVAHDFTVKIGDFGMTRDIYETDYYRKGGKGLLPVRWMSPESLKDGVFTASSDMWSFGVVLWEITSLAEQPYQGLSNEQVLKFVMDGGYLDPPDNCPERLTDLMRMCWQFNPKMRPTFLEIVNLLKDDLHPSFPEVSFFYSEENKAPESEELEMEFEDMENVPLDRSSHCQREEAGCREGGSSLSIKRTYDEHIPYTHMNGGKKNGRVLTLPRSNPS

D(1A) dopamine receptor = D(1A) dopamine receptor (Homo sapiens, UniProt P21728); test: DRUGMATRIX: Dopamine D1 radioligand binding (ligand: [3H] SCH-23390); format: cell membranes, Membrane; conditions: cho; Not Active = under 50% inhibition at 10 µM
D(1A) dopamine receptor, sequence (P21728 whole entry): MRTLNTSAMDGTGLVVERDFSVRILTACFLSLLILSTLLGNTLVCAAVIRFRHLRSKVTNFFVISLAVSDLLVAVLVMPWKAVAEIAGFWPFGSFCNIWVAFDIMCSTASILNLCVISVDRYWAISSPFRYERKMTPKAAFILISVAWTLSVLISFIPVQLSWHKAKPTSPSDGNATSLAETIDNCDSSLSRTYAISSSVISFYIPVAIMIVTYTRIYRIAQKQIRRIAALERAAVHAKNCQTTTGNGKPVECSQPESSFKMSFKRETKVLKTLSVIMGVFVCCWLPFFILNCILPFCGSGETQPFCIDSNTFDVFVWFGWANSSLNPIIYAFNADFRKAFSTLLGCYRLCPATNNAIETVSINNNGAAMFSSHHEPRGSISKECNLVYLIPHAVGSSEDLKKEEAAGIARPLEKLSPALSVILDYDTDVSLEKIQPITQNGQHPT

[3] = DRUGMATRIX: beta-Lactamase enzyme inhibition (substrate: Nitrocefin); parameters: species or system Bacillus cereus; conditions: Not Active = under 50% inhibition at 10 µM
Cytochrome P450 2E1 = Cytochrome P450 2E1 (Homo sapiens, UniProt P05181); conditions: bti-tn-5b1-4; note: in other assays of this panel Not Active means under 50% inhibition at 10 µM
Cytochrome P450 2E1, sequence (P05181 whole entry): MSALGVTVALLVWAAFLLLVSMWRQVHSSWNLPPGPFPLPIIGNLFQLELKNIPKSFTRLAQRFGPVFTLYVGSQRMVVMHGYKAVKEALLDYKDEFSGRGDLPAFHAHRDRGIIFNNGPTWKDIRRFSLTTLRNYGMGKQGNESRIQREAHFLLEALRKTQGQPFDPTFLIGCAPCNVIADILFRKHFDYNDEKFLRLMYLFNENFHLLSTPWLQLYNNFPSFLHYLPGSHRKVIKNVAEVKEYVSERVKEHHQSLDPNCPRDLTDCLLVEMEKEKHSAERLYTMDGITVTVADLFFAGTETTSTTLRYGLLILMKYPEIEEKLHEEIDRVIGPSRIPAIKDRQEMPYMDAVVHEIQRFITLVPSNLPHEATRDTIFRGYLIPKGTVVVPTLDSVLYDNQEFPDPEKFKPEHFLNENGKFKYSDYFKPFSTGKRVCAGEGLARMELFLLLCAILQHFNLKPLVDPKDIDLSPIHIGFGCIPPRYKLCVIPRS

Thromboxane-A synthase = target: T2, Thromboxane-A synthase (Homo sapiens, UniProt P24557); test: biochemical; format: tissue-based, Platelet; conditions: platelet
T2 sequence (P24557 whole entry): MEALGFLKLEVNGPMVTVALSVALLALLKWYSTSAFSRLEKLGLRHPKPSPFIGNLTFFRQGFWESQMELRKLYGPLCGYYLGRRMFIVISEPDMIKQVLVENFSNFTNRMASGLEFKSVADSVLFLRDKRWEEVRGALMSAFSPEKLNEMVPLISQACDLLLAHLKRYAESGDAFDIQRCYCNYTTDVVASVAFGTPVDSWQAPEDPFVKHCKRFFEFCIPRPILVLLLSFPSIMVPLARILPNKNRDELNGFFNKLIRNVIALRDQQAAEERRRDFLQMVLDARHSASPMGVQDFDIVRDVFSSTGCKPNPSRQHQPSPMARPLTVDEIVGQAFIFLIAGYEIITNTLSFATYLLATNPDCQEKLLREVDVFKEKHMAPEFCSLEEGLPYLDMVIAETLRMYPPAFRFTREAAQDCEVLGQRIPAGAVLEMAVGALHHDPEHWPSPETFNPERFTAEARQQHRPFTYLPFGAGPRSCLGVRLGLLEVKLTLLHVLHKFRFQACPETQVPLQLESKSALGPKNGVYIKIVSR

[4] = DRUGMATRIX: Glutamate, Kainate radioligand binding (ligand: [3H] Kainic acid); format: cell membranes, Rattus norvegicus, Wistar, Brain, Membrane; conditions: Not Active = under 50% inhibition at 10 µM

Mitogen-activated protein kinase 14, sequence (Q16539 whole entry): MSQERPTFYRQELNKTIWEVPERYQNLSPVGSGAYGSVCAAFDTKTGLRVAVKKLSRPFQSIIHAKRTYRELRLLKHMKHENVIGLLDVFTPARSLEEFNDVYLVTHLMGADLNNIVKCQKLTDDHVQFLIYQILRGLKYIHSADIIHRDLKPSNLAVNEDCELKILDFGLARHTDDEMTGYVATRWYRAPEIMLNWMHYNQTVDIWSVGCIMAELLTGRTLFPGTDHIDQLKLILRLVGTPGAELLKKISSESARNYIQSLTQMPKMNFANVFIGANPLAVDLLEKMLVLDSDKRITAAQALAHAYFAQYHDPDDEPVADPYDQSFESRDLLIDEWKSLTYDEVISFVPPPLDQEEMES

C[C@]12CC[C@@H]3c4ccc(OC(=O)c5ccccc5)cc4CC[C@H]3[C@@H]1CC[C@@H]2O [ESTRADIOL BENZOATE]
Not Active: IC50 [1] | IC50 (Cathepsin G) | IC50 [2] | Ki [2] | IC50 (Insulin receptor) | IC50 (D(1A) dopamine receptor) | IC50 [3] | Ki [3] | IC50 (Cytochrome P450 2E1) | Ki (Cytochrome P450 2E1) | IC50 (Thromboxane-A synthase) | IC50 [4] | Ki [4]

C[N+](C)(C)CCO.[Cl-] [CHOLINE CHLORIDE]
Not Active: IC50 [1] | IC50 (Cathepsin G) | IC50 [2] | Ki [2] | IC50 (Insulin receptor) | IC50 (D(1A) dopamine receptor) | IC50 [3] | Ki [3] | IC50 (Cytochrome P450 2E1) | Ki (Cytochrome P450 2E1) | IC50 (Thromboxane-A synthase) | IC50 [4] | Ki [4]

C[C@@]12C(=O)OC(=O)[C@]1(C)[C@H]1CC[C@@H]2O1 [CANTHARIDIN]
Not Active: IC50 [1] | IC50 (Cathepsin G) | IC50 [2] | Ki [2] | IC50 (Insulin receptor) | IC50 (D(1A) dopamine receptor) | IC50 [3] | Ki [3] | IC50 (Cytochrome P450 2E1) | Ki (Cytochrome P450 2E1) | IC50 (Thromboxane-A synthase) | IC50 [4] | Ki [4]

O=S(=O)([O-])CCS.[Na+] [MESNA]
Not Active: IC50 [1] | IC50 (Cathepsin G) | IC50 [2] | Ki [2] | IC50 (Insulin receptor) | IC50 (D(1A) dopamine receptor) | IC50 [3] | Ki [3] | IC50 (Cytochrome P450 2E1) | Ki (Cytochrome P450 2E1) | IC50 (Thromboxane-A synthase) | IC50 [4] | Ki [4]

CCN[C@@H]1C[C@H](N)[C@@H](O[C@H]2OC(CN)=CC[C@H]2N)[C@H](O)[C@H]1O[C@H]1OC[C@](C)(O)[C@H](NC)[C@H]1O [NETILMICIN]
Not Active: IC50 [1] | IC50 (Cathepsin G) | IC50 [2] | Ki [2] | IC50 (Insulin receptor) | IC50 (D(1A) dopamine receptor) | IC50 [3] | Ki [3] | IC50 (Cytochrome P450 2E1) | Ki (Cytochrome P450 2E1) | IC50 (Thromboxane-A synthase) | IC50 [4] | Ki [4]

CCOC(=O)C(C)(C)Oc1ccc(Cl)cc1 [CLOFIBRATE]
Not Active: IC50 [1] | IC50 (Cathepsin G) | IC50 [2] | Ki [2] | IC50 (Insulin receptor) | IC50 (D(1A) dopamine receptor) | IC50 [3] | Ki [3] | IC50 (Cytochrome P450 2E1) | Ki (Cytochrome P450 2E1) | IC50 (Thromboxane-A synthase) | IC50 [4] | Ki [4]

C#C[C@]1(OC(C)=O)CC[C@H]2[C@@H]3CCC4=CC(=O)CC[C@@H]4[C@H]3CC[C@@]21C [NORETHINDRONE ACETATE]
Not Active: IC50 [1] | IC50 (Cathepsin G) | IC50 [2] | Ki [2] | IC50 (Insulin receptor) | IC50 (D(1A) dopamine receptor) | IC50 [3] | Ki [3] | IC50 (Cytochrome P450 2E1) | Ki (Cytochrome P450 2E1) | IC50 (Thromboxane-A synthase) | IC50 [4] | Ki [4]

COC(=O)C1=C(C)NC(C)=C(C(=O)OCC(C)C)C1c1ccccc1[N+](=O)[O-] (configuration not stated) [NISOLDIPINE]
Not Active: IC50 [1] | IC50 (Cathepsin G) | IC50 [2] | Ki [2] | IC50 (Insulin receptor) | IC50 (D(1A) dopamine receptor) | IC50 [3] | Ki [3] | IC50 (Cytochrome P450 2E1) | Ki (Cytochrome P450 2E1) | IC50 (Thromboxane-A synthase) | IC50 [4] | Ki [4]

CC(=O)Nc1c(I)c(NC(C)=O)c(I)c(C(=O)O)c1I [DIATRIZOIC ACID]
Not Active: IC50 [1] | IC50 (Cathepsin G) | IC50 [2] | Ki [2] | IC50 (Insulin receptor) | IC50 (D(1A) dopamine receptor) | IC50 [3] | Ki [3] | IC50 (Cytochrome P450 2E1) | Ki (Cytochrome P450 2E1) | IC50 (Thromboxane-A synthase) | IC50 [4] | Ki [4]
